From the CheMixHub viscosity set
± gives the uncertainty stated by the source.

Assay: xn = mol fraction of the nth substance listed

CCCCCCCCO + CCO
viscosity [mPa·s], 101 kPa
Conditions | 298.15 K | 303.15 K | 308.15 K | 318.15 K
x2 = 0.05 | 6.909 ± 0.067 | – | 4.994 ± 0.048 | 3.689 ± 0.034
x2 = 0.1 | 6.475 ± 0.062 | – | 4.73 ± 0.045 | 3.51 ± 0.033
x2 = 0.1301 | – | 5.471 ± 0.14 | – | –
x2 = 0.15 | 6.058 ± 0.058 | – | 4.466 ± 0.042 | 3.331 ± 0.031
x2 = 0.2 | 5.658 ± 0.054 | – | 4.204 ± 0.039 | 3.154 ± 0.029
x2 = 0.243 | – | 4.607 ± 0.12 | – | –
x2 = 0.25 | 5.273 ± 0.05 | – | 3.945 ± 0.036 | 2.979 ± 0.027
x2 = 0.3 | 4.903 ± 0.046 | – | 3.69 ± 0.034 | 2.805 ± 0.025
x2 = 0.3339 | – | 4.001 ± 0.1 | – | –
x2 = 0.35 | 4.546 ± 0.043 | – | 3.441 ± 0.031 | 2.634 ± 0.024
x2 = 0.4 | 4.202 ± 0.039 | – | 3.198 ± 0.029 | 2.466 ± 0.022
x2 = 0.45 | 3.871 ± 0.036 | – | 2.961 ± 0.027 | 2.301 ± 0.021
x2 = 0.5 | 3.552 ± 0.032 | – | 2.733 ± 0.024 | 2.14 ± 0.019
x2 = 0.5477 | – | 2.922 ± 0.075 | – | –
x2 = 0.55 | 3.245 ± 0.029 | – | 2.512 ± 0.022 | 1.982 ± 0.018
x2 = 0.6 | 2.951 ± 0.026 | – | 2.3 ± 0.02 | 1.828 ± 0.016
x2 = 0.65 | 2.668 ± 0.024 | – | 2.096 ± 0.018 | 1.678 ± 0.015
x2 = 0.6979 | – | 2.169 ± 0.056 | – | –
x2 = 0.7 | 2.398 ± 0.021 | – | 1.901 ± 0.017 | 1.532 ± 0.013
x2 = 0.75 | 2.141 ± 0.019 | – | 1.714 ± 0.015 | 1.391 ± 0.012
x2 = 0.8 | 1.897 ± 0.017 | – | 1.535 ± 0.013 | 1.254 ± 0.011
x2 = 0.8094 | – | 1.689 ± 0.043 | – | –
x2 = 0.85 | 1.668 ± 0.015 | – | 1.364 ± 0.012 | 1.121 ± 0.0099
x2 = 0.8948 | – | 1.362 ± 0.035 | – | –
x2 = 0.9 | 1.453 ± 0.013 | – | 1.199 ± 0.01 | 0.9926 ± 0.0088
x2 = 0.95 | 1.255 ± 0.011 | – | 1.04 ± 0.0091 | 0.8687 ± 0.0077
x2 = 0.9602 | – | 1.121 ± 0.029 | – | –

CC(C)(C)N + CCOC(C)=O
303.15 K, 101 kPa
Conditions | viscosity [mPa·s]
x1 = 0.168 | 0.4142 ± 0.0037
x1 = 0.2336 | 0.4185 ± 0.0037
x1 = 0.3514 | 0.424 ± 0.0037
x1 = 0.5046 | 0.4329 ± 0.0038
x1 = 0.5951 | 0.4363 ± 0.0038
x1 = 0.6618 | 0.4371 ± 0.0038
x1 = 0.8008 | 0.442 ± 0.0039
x1 = 0.8723 | 0.4431 ± 0.0039

CCN(CC)CCO.Cl + OCC(O)CO
101 kPa, x1 = 0.333
Conditions | viscosity [mPa·s]
296.97 K | 433.4 ± 17
298.15 K | 513.1 ± 40
302.02 K | 339.9 ± 12
303.15 K | 351.5 ± 23
306.82 K | 263.5 ± 8.3
308.15 K | 251.3 ± 14
312.13 K | 195.5 ± 5.2
313.15 K | 182.9 ± 8.3
317.31 K | 153 ± 3.5
318.15 K | 138 ± 5.2
322.61 K | 110.5 ± 2.1
323.15 K | 104.2 ± 3.2

CC12CC3CC(C1)CC(C)(C3)C2 + CCCCCCCCCC
viscosity [mPa·s], 100 kPa
Conditions | x1 = 0.1028 | x1 = 0.1981 | x1 = 0.3019 | x1 = 0.3998 | x1 = 0.4996 | x1 = 0.6018 | x1 = 0.6968 | x1 = 0.7904 | x1 = 0.895
293.15 K | 1.016 ± 0.011 | 1.12 ± 0.011 | 1.253 ± 0.011 | 1.402 ± 0.011 | 1.581 ± 0.012 | 1.828 ± 0.012 | 2.125 ± 0.013 | 2.491 ± 0.014 | 3.031 ± 0.015
298.15 K | 0.942 ± 0.01 | 1.035 ± 0.011 | 1.154 ± 0.011 | 1.287 ± 0.011 | 1.445 ± 0.011 | 1.665 ± 0.012 | 1.926 ± 0.012 | 2.247 ± 0.013 | 2.719 ± 0.014
303.15 K | 0.877 ± 0.01 | 0.961 ± 0.01 | 1.069 ± 0.011 | 1.187 ± 0.011 | 1.328 ± 0.011 | 1.526 ± 0.012 | 1.757 ± 0.012 | 2.04 ± 0.013 | 2.456 ± 0.014
313.15 K | 0.767 ± 0.01 | 0.837 ± 0.01 | 0.926 ± 0.01 | 1.023 ± 0.011 | 1.137 ± 0.011 | 1.295 ± 0.011 | 1.48 ± 0.011 | 1.704 ± 0.012 | 2.032 ± 0.013
323.15 K | 0.672 ± 0.01 | 0.729 ± 0.01 | 0.797 ± 0.01 | 0.879 ± 0.01 | 0.972 ± 0.01 | 1.098 ± 0.011 | 1.237 ± 0.011 | 1.421 ± 0.011 | 1.676 ± 0.012

CC12CC3CC(C1)CC(C)(C3)C2 + CCCCCCCCCCC
viscosity [mPa·s], 100 kPa
Conditions | x1 = 0.1005 | x1 = 0.2002 | x1 = 0.2999 | x1 = 0.4004 | x1 = 0.4999 | x1 = 0.5996 | x1 = 0.7003 | x1 = 0.8 | x1 = 0.8999
293.15 K | 1.278 ± 0.052 | 1.376 ± 0.056 | 1.491 ± 0.061 | 1.628 ± 0.066 | 1.805 ± 0.073 | 2.024 ± 0.082 | 2.319 ± 0.094 | 2.683 ± 0.11 | 3.141 ± 0.13
298.15 K | 1.173 ± 0.048 | 1.273 ± 0.052 | 1.385 ± 0.056 | 1.492 ± 0.061 | 1.639 ± 0.067 | 1.831 ± 0.074 | 2.087 ± 0.085 | 2.418 ± 0.098 | 2.813 ± 0.11
303.15 K | 1.083 ± 0.044 | 1.162 ± 0.047 | 1.25 ± 0.051 | 1.37 ± 0.056 | 1.501 ± 0.061 | 1.676 ± 0.068 | 1.901 ± 0.077 | 2.19 ± 0.089 | 2.531 ± 0.1
308.15 K | 1.003 ± 0.041 | 1.071 ± 0.044 | 1.153 ± 0.047 | 1.259 ± 0.051 | 1.376 ± 0.056 | 1.53 ± 0.062 | 1.735 ± 0.071 | 1.98 ± 0.08 | 2.299 ± 0.093
313.15 K | 0.936 ± 0.038 | 0.998 ± 0.041 | 1.074 ± 0.044 | 1.166 ± 0.047 | 1.272 ± 0.052 | 1.409 ± 0.057 | 1.589 ± 0.065 | 1.817 ± 0.074 | 2.083 ± 0.085
318.15 K | 0.872 ± 0.035 | 0.939 ± 0.038 | 1.006 ± 0.041 | 1.084 ± 0.044 | 1.172 ± 0.048 | 1.297 ± 0.053 | 1.461 ± 0.059 | 1.665 ± 0.068 | 1.911 ± 0.078
323.15 K | 0.815 ± 0.033 | 0.871 ± 0.035 | 0.94 ± 0.038 | 1.008 ± 0.041 | 1.097 ± 0.045 | 1.207 ± 0.049 | 1.348 ± 0.055 | 1.532 ± 0.062 | 1.744 ± 0.071

CC(C)(C)N + COCCO
308.15 K, 101 kPa
Conditions | viscosity [mPa·s]
x2 = 0.13 | 0.5293 ± 0.0071
x2 = 0.2516 | 0.6631 ± 0.0087
x2 = 0.3656 | 0.7913 ± 0.01
x2 = 0.4727 | 0.9167 ± 0.012
x2 = 0.5735 | 1.035 ± 0.013
x2 = 0.6668 | 1.083 ± 0.014
x2 = 0.7583 | 1.115 ± 0.014
x2 = 0.8432 | 1.152 ± 0.015
x2 = 0.9237 | 1.187 ± 0.015

C=Cc1ccccc1 + CCCCCCC
viscosity [mPa·s], 101.33 kPa
Conditions | x1 = 0.1018 | x1 = 0.202 | x1 = 0.2988 | x1 = 0.3984 | x1 = 0.4989 | x1 = 0.5997 | x1 = 0.6992 | x1 = 0.8006 | x1 = 0.8979
298.15 K | 0.398 ± 0.01 | 0.412 ± 0.01 | 0.427 ± 0.011 | 0.448 ± 0.011 | 0.471 ± 0.011 | 0.5 ± 0.011 | 0.536 ± 0.011 | 0.581 ± 0.011 | 0.638 ± 0.011
303.15 K | 0.379 ± 0.01 | 0.393 ± 0.01 | 0.406 ± 0.01 | 0.425 ± 0.01 | 0.445 ± 0.011 | 0.473 ± 0.011 | 0.508 ± 0.011 | 0.55 ± 0.011 | 0.599 ± 0.011
308.15 K | 0.36 ± 0.01 | 0.372 ± 0.01 | 0.386 ± 0.01 | 0.405 ± 0.01 | 0.423 ± 0.01 | 0.45 ± 0.011 | 0.481 ± 0.011 | 0.519 ± 0.011 | 0.565 ± 0.011
